Test results: ChEMBL document CHEMBL2016457, “Discovery of potent and orally bioavailable 17β-hydroxysteroid dehydrogenase type 3 inhibitors” (Bioorg Med Chem, 2012)
Calls of active or inactive are those of the source. No rule for the calls is given here.

Assays:
[1] = biological target: T1, Glucocorticoid receptor (Homo sapiens) (UniProt P04150); assay: Agonist activity at human Glucocorticoid receptor expressed in human HeLa cells assessed as DHT-induced response after 40 hrs by luciferase/beta-galactosidase-based reporter gene assay; type: functional, cell-based
T1 sequence (whole entry): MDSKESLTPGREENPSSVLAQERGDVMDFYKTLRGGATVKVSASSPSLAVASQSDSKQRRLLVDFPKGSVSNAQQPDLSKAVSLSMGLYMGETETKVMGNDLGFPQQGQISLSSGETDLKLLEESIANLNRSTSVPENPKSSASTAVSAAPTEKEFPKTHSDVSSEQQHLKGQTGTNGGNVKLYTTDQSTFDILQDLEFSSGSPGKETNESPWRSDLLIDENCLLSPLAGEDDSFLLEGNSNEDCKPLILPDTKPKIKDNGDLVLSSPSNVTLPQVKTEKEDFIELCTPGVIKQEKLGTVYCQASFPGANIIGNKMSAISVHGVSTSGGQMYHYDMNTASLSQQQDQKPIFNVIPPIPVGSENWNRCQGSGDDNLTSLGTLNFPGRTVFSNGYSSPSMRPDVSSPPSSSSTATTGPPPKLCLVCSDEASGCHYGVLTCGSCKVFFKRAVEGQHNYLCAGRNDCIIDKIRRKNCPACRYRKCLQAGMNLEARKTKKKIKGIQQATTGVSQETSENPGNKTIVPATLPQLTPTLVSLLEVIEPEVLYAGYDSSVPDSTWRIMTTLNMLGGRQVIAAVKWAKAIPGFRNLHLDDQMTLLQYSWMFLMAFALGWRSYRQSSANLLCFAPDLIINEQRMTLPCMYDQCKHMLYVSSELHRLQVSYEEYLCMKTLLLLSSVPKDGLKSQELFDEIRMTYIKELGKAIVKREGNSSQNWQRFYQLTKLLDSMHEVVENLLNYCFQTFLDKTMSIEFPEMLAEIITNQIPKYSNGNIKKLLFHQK

[2] = biological target: T1, Glucocorticoid receptor (Homo sapiens); assay: Antagonist activity at human GR receptor expressed in human HeLa cells assessed as inhibition of DHT-induced response after 40 hrs by luciferase/beta-galactosidase-based reporter gene assay; type: functional, cell-based
[3] = biological target: T2, 17-beta-hydroxysteroid dehydrogenase type 2 (Homo sapiens) (UniProt P37059); assay: Inhibition of human recombinant 17-beta-HSD2 expressed in human HeLa cells using estradiol as substrate preincubated for 30 mins prior substrate addition measured after 120 mins by spectrophotometry; type: cell-based
T2 sequence (whole entry): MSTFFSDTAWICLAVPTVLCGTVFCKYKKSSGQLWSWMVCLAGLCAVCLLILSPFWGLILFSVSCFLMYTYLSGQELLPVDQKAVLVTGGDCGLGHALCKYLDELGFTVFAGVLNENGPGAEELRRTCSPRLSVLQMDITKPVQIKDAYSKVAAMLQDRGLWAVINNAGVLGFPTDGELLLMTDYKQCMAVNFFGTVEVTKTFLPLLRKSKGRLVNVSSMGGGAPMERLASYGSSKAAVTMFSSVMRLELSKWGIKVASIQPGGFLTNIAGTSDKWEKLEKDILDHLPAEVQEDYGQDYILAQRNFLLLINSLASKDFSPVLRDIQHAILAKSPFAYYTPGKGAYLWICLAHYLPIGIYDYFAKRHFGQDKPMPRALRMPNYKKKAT

[4] = Solubility of the compound; type: physicochemical
[5] = biological target: T3, Androgen receptor (Homo sapiens) (UniProt P10275); assay: Antagonist activity at human androgen receptor expressed in human HeLa cells assessed as inhibition of DHT-induced response after 40 hrs by luciferase/beta-galactosidase-based reporter gene assay; type: functional, cell-based
T3 sequence (whole entry): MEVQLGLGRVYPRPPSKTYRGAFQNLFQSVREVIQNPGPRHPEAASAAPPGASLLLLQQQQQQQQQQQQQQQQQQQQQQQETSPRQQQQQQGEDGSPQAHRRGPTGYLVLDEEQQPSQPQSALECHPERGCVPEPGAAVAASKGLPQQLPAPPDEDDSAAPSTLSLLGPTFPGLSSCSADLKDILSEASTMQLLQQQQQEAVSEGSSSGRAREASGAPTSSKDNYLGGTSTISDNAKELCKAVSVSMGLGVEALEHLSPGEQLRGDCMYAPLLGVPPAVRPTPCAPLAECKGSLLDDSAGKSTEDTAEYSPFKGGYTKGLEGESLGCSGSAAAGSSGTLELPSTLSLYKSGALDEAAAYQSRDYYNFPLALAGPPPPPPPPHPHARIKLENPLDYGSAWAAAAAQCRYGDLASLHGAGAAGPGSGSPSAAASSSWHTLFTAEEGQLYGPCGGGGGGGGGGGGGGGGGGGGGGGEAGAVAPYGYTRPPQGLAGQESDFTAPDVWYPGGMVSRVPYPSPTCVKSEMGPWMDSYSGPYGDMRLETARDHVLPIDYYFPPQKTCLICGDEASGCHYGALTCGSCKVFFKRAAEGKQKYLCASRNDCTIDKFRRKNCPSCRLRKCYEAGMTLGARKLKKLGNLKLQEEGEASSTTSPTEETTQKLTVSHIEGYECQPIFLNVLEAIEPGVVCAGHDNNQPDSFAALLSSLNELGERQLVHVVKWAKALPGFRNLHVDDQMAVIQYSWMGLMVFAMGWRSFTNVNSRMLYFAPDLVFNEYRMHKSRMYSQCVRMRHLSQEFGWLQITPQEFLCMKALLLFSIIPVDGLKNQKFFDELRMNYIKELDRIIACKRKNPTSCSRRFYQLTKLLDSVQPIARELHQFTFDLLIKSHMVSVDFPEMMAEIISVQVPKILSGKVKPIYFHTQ

[6] = biological target: T4, Estrogen receptor (Homo sapiens) (UniProt P03372); assay: Antagonist activity at human ERalpha receptor expressed in human HeLa cells assessed as inhibition of DHT-induced response after 40 hrs by luciferase/beta-galactosidase-based reporter gene assay; type: functional, cell-based
T4 sequence (whole entry): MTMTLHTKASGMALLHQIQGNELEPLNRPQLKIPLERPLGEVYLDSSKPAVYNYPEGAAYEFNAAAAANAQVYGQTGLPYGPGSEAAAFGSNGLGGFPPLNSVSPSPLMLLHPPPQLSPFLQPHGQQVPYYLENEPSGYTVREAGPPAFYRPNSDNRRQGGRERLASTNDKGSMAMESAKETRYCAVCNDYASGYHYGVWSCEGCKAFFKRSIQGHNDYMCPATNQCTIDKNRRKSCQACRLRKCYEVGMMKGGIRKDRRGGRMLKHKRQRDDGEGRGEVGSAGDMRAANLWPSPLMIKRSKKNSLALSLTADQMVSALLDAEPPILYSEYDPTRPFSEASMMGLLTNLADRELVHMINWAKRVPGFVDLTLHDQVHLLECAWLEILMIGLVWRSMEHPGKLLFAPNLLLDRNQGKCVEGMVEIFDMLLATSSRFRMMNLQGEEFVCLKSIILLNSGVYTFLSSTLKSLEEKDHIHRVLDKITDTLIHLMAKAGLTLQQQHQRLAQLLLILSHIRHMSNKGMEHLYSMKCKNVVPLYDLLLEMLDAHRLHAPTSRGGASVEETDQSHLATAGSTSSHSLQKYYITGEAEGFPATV

[7] = biological target: T5, 17-beta-hydroxysteroid dehydrogenase type 1 (Homo sapiens) (UniProt P14061); assay: Inhibition of human recombinant 17-beta-HSD1 expressed in human HeLa cells using estrone as substrate preincubated for 30 mins prior substrate addition measured after 120 mins by spectrophotometry; type: cell-based
T5 sequence (whole entry): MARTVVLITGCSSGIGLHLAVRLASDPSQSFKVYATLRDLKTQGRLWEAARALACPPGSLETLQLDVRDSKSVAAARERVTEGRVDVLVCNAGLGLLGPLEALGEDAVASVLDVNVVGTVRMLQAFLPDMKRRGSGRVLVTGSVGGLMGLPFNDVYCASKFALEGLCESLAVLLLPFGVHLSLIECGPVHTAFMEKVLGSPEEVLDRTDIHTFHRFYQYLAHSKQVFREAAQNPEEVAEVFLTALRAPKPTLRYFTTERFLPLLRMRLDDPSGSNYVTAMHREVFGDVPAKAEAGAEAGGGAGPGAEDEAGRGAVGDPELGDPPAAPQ

[8] = biological target: T3, Androgen receptor (Homo sapiens); assay: Agonist activity at human androgen receptor expressed in human HeLa cells assessed as DHT-induced response after 40 hrs by luciferase/beta-galactosidase-based reporter gene assay; type: functional, cell-based
[9] = biological target: T4, Estrogen receptor (Homo sapiens); assay: Agonist activity at human Estrogen receptor ERalpha expressed in human HeLa cells assessed as DHT-induced response after 40 hrs by luciferase/beta-galactosidase-based reporter gene assay; type: functional, cell-based

- Activity [1]: inactive
- Activity [2]: inactive
- inhibition [3]: inactive
- solubility [4]: < 1 µg/mL
- Activity [5]: inactive
- Activity [6]: inactive
- inhibition [7]: inactive
- Activity [8]: inactive
- Activity [9]: inactive
SMILES: COc1ccc(N2C(=O)/C(=C/c3ccc(O)c(Br)c3)OC2=S)cc1
